Results published in US11364211B2, “Methods for selecting phosphatase selective and non-selective phosphatase inhibitors” (MEDICAL RESEARCH COUNCIL, priority 2015, dated 2022).
“Also recorded” adds a separate entry of the source.

Key:
PP1c = PP1c (Homo sapiens, UniProt P36873); experiment: PP1c catalytic activity assay (EnzChek); format: biochemical; conditions: purified PP1c 30 nM, 30 minutes at 4° C.
Procedure: Residual activity of PP1c was then measured using the EnzChek Phosphatase Assay Kit (Thermo Fisher Scientific) according to the supplier's instructions.

[1] = Guanabenz-like side effects: mouse activity after acute dosing; format: in vivo; conditions: 10 mg/kg oral gavage, 30 minutes following dosing
Procedure: To assess whether of a compound of Example 1 had the side effects of Guanabenz, mice (n>3) were gavaged orally with 10 mg/kg of compound or Guanabenz. Their activity was monitored 30 minutes following dosing.
In order to assess the GBZ-like side effects (due to the adrenergic activity) of treatment the motor performance of mice was monitored after a single administration of TST3. To this end mice were treated with TST3 and left in a cage for 60 minutes. Mice behaviour was monitored every 15 minutes. Mice similarly treated with GBZ were used as a control.

PPP1R15A = experiment: Induction of PPP1R15A in mouse brain (qPCR); format: in vivo; conditions: mice, indicated doses
Procedure: RNA from brain was extracted in trizol (Life Technologies). RNA concentration was measured using a NANODROP1000 spectrophotometer (Thermo Fisher Scientific), and 1 μg was reverse transcribed to cDNA using a SuperScript reverse transcriptase (Life Technologies). Quantitative PCR with primers GAPDH (f): […], GAPDH (r): […], PPP1R15A (f): […];
and PPP1R15A (r): […] was performed using SYBR® Select Master Mix (Ref 4472908, applied biosystems) on a Corbett Rotor-Gene version 6000. Expression of each gene was normalized to the housekeeping gene GAPDH and expressed as fold change calculated using Paffl equation.
PPP1R15A induction was assessed by qPCR on total mRNA extracted from brains of mice treated with the indicated doses of compound of Example 1.

eIF2α phosphorylation = eIF2α phosphorylation during stress-recovery after DTT wash out; format: cell-based; conditions: 30 minute 1 mM DTT and wash out
Procedure: The inventors reasoned that a PPP1R15B inhibitor should prolong eIF2α phosphorylation following stress. To reveal this activity, it was crucial to search for conditions where PPP1R15A is not expressed, to avoid confounding effects. The inventors took advantage of the fast kinetic and reversibility of stress induction by DTT (Bertolotti et al., Nat. Cell. Biol., 2, 326-332, 2000; Jousse et al., 2003) and monitored eIF2α phosphorylation in cells following a 30 minute treatment with 1 mM DTT and a wash out. […] Thus, careful monitoring of the kinetic of eIF2α dephosphorylation in the early phase of a stress-recovery paradigm such as the one described here can be used to identify other PPP1R15B inhibitors.

HD-N171-82Q mice = experiment: Huntington's disease mouse model, motor performance (rotarod); format: in vivo; conditions: 2 mg/kg orally daily for 4 weeks
Procedure: To assess the efficacy of a compound of Example 1 in ameliorating a disease phenotype, 28-day old transgenic mice or littermate control were orally administered daily with a compound of Example 1 (2 mg/kg) or vehicle for a duration of 4 weeks. Disease progression was evaluated by weighting the mice during the treatment and by assessing their motor performances after 4 weeks of treatment.
Eight weeks old HD-N171-82Q mice and their wild-type littermates were first habituated for 1 min on a static rotor and 1 min at constant speed (4 rpm). Habituation was repeated. The test session consisted of four trials with 15 min intervals in between. For each trial 5 mice were placed on an accelerating rotor (4 to 40 rpm) and the latency to fall was recorded, with a maximum limit for individual animal set at 300 s.
To produce an experimental group HD-N171-82Q transgenic males were crossed with C3H/B6 F1 wild type females. 4 weeks old transgenic males and their wild type littermate male controls were randomized in different groups and treated with TST3 for 4 weeks.
TST3 treatment of HD-N171-82Q transgenic males and their wild type littermate male controls started at 4 weeks of age and was continued for 4 weeks before the test. […] In each trial mice were allowed to run on an accelerating rod from 4 to 40 rpm for up to 300 seconds and the latency to fall was counted. […]

[2] = test system: dorsal root ganglia culture (DRG) from PMP22 mutant mice; experiment: Myelination in DRG cultures from PMP22 mutant mice; format: cell-based, mouse; conditions: 5 nM compound, 14 days
Procedure: Dorsal root ganglia (DRG) dissected from wild-type or Pmp22Tr-J (PMP22mutant) (Henry et al., Neuropathol. Exp. Neurol., 42, 688-706, 1983) embryo at 13.5 or […] (E13.5) were cultured on collagen coated coverslips in neurobasal media supplemented with 4 g/l glucose, 2 mM L-glutamine, 2% B27 supplement and 50 ng/ml neuronal growth factor (NGF) for 7 days. To differentiate Schwann cells and induce myelination, the cultured DRGs were then maintained in C-media (MEM media supplemented with 4 g/l glucose, 2 mM L-glutamine, 10% FCS, 50 ng/ml NGF). The C-media was replaced every other day with freshly added 50 μg/ml ascorbic acid ±5 nM of compound of Example I and cultured for 14 days for myelination by the Schwann cells. The cultured DRGs were then fixed in 4% paraformaldehyde and immunostained with MBP (Rat Myelin basic protein, 1/250 dilution, ab73498).

Chain of PP1c (P36873 whole entry): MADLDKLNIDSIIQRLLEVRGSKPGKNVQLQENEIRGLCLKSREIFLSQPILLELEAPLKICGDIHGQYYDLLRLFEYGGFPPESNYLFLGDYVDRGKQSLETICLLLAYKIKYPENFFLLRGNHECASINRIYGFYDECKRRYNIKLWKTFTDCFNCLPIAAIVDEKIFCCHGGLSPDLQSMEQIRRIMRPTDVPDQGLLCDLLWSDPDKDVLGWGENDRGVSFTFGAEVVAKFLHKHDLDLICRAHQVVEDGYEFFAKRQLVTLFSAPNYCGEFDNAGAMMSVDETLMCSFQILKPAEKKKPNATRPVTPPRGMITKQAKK

## [H]/N=C(\N)NN=Cc1cccc(Cl)c1Cl [Example 1, (E)-2-(2,3-dichlorobenzylidene)hydrazine-1-carboximidamide]
PP1c; listed as TST3
  inhibition of PP1c in enzymatic assay: does not inhibit PP1c; also recorded: doesn't inhibit PP1
[1]; 10 mg/kg
  side effects of Guanabenz / activity of mice after dosing: as active as untreated mice; also recorded: devoid of the side effects of Guanabenz; also recorded: does not cause the side effects of Guanabenz
PPP1R15A
  induction of PPP1R15A mRNA in brain: induced PPP1R15A; also recorded: induction of R15A
eIF2α phosphorylation
  eIF2α phosphorylation following stress: prolongs eIF2α phosphorylation
HD-N171-82Q mice
  motor performance / disease prevention in Huntington's disease mice: ameliorates Huntington's disease; also recorded: prevented the motor performances impairment; also recorded: preventing disease
[2]
  myelination (length of myelin internodes): improved myelination; also recorded: increased the length of myelin internodes

## N=C(N)N/N=C/c1c(Cl)cccc1Cl [Guanabenz, reference compound]
PP1c
  inhibition of PP1c in enzymatic assay: does not inhibit PP1c
[1]
  side effects of Guanabenz / activity of mice after dosing: did not move
